Assay results published in publication PMC11243625, “Synthesis, Docking, and Machine Learning Studies of Some Novel Quinolinesulfonamides–Triazole Hybrids with Anticancer Activity” (Molecules, 2024).
“Also recorded” adds a separate entry of the source. Read-outs that look alike come from different tables or passages of the source.

How the values were obtained:
SNB-19 = experiment: WST-1 test, glioblastoma cells; assay type: cell-based, human
Description: (§1) Hybrids 4–14 were tested as anticancer agents against four human cancer cell lines: colon cancer (Caco-2), glioblastoma (SNB-19), lung cancer (A549), ovarian cancer (SKOV-3), and normal human dermal fibroblasts (NHDFs). Cisplatin was used as the reference substance. The results are presented as the compound concentration of the compound (μM) that inhibits the growth of 50% of cancer cells compared to control cells (IC50). A negative value (Neg) means that the compound concentration of the tested hybrids was greater than 500 µM. […] It is generated only by a weak van der Waals interaction with Arg84. […] There is also a visible difference in activity depending on the type of group present on the triazole ring (substituent C in Figure 2). The results obtained indicate that hybrids containing aromatic systems as a C substituent in their structure, especially another quinoline molecule (compounds 9 and 10), have high activity.
(§2) Cell cultures were performed in 96-well plates (Nunc Thermo Fisher Scientific, Waltham, MA, USA). Cells were seeded at 5 × 10^4/well and incubated for 24 h (at 37 °C, 5% CO2, and constant humidity). The medium was replaced with fresh with the addition of test compounds at a concentration of 0.1–100 µg/mL of DMSO and incubated again for another 72 h. After this time, the WST-1 test (Roche Molecular Biochemicals, Mannheim, Germany) was performed to assess the metabolic activity of the cells. Absorbance was measured at λ = 450 nm using a UVM340 microplate reader (Biogenet, Józefów, Poland). Results are expressed as the mean value of at least three independent experiments performed in triplicate.

A549 [1] = experiment: WST-1 test, lung cancer cells; assay type: cell-based, human; conditions: for IC50: read-out: IC50 A-549
Description: as §1, §2

NHDF = experiment: WST-1 test, normal human dermal fibroblasts; assay type: cell-based; conditions: 72 h, WST-1, normal cells
Description: as §1, §2

SKOV-3 = experiment: WST-1 test, ovarian cancer cells; assay type: cell-based, human
Description: as §1, §2

Caco-2 = experiment: WST-1 test, colon cancer cells; assay type: cell-based, human
Description: Hybrids 4–14 were tested as anticancer agents against four human cancer cell lines: colon cancer (Caco-2), glioblastoma (SNB-19), lung cancer (A549), ovarian cancer (SKOV-3), and normal human dermal fibroblasts (NHDFs).
as §2

A549 [2] = test system: A549; parameters: method as in doi:10.1016/j.arabjc.2016.10.009; conditions: values marked *; read-out: IC50 A-549; cited from earlier work

Structure (SMILES)	IC50 (SNB-19; 72 h)	IC50 (Caco-2; Homo sapiens, Caco-2, 72 h)	melting point	IC50 (SNB-19; Homo sapiens, SNB-19, 72 h)	IC50 (A549 [1]; Homo sapiens, A549, 72 h)	IC50 (SKOV-3; Homo sapiens, SK-OV-3, 72 h)	IC50 A-549 (A549 [1]; 72 h)	IC50 (Caco-2; 72 h)	IC50 (A549 [1]; 72 h)	IC50 (NHDF)	IC50 (SKOV-3; 72 h)	IC50 (NHDF; Homo sapiens, NHDF)	IC50 NHDF (NHDF)	IC50 (A549 [2])
N.N.[Cl][Pt][Cl] [Cisplatin, reference compound]	2.93 µM								453 µM	> 500 µM	41.6 µM			
O=S(=O)(NCc1cn(Cc2ccccc2)nn1)c1cccc2cccnc12 [Compound 4a, 8-N-[(1-Benzyl-1H-1,2,3-triazol-4-yl)methyl]quinolinesulfonamide]		26.4 µM	125 to 126 °C	> 500 µM	> 500 µM	> 500 µM						> 500 µM		
CN(Cc1cn(Cc2ccccc2)nn1)S(=O)(=O)c1cccc2cccnc12 [Compound 4b, 8-N-Methyl-N-[(1-benzyl-1H-1,2,3-triazol-4-yl)methyl]quinolinesulfonamide]		0.4 µM	103 to 105 °C	1.18 µM	7.72 µM	66.2 µM						191 µM		
CN(Cc1cn(Cc2ccc(C#N)cc2)nn1)S(=O)(=O)c1cccc2cccnc12 [Compound 5b, 8-N-Methyl-N-{[1-(4-cyanobenzyl)-1H-1,2,3-triazol-4-yl]methyl}quinolinesulfonamide]		0.4 µM	112 to 113 °C	0.41 µM	0.8 µM	14.1 µM	nanomolar concentration range					9.16 µM	have activity against normal cells	
O=S(=O)(NCc1cn(Cc2ccc(F)cc2)nn1)c1cccc2cccnc12 [Compound 6a, 8-N-{[1-(4-Fluorobenzyl)-1H-1,2,3-triazol-4-yl]methyl}quinolinesulfonamide]		27.5 µM	118 to 119 °C	> 500 µM	> 500 µM	> 500 µM						> 500 µM		
CN(Cc1cn(Cc2ccc([N+](=O)[O-])cc2)nn1)S(=O)(=O)c1cccc2cccnc12 [Compound 7b, 8-N-Methyl-N-{[1-(4-nitrobenzyl)-1H-1,2,3-triazol-4-yl]methyl}quinolinesulfonamide]		2.47 µM	103 to 105 °C	0.41 µM	> 500 µM	> 500 µM						> 500 µM		
CN(Cc1cn(CSc2ccccc2)nn1)S(=O)(=O)c1cccc2cccnc12 [Compound 8b, 8-N-Methyl-N-[(1-methylthiophenyl-1H-1,2,3-triazol-4-yl)methyl]quinolinesulfonamide]	0.35 µM	0.34 µM	118 to 119 °C	≤ 0.4 µM	> 500 µM	> 500 µM						> 500 µM		
CN(Cc1cn(-c2ccnc3cc(Cl)ccc23)nn1)S(=O)(=O)c1cccc2cccnc12 [Compound 9b, 8-N-Methyl-N-{[1-(7-chloroquinolin-4-yl)-1H-1,2,3-triazol-4-yl]methyl}quinolinesulfonamide]	0.38 µM	0.26 µM	189 to 190 °C	≤ 0.4 µM	0.4 µM	4.16 µM	nanomolar concentration range					> 500 µM	lack of cytotoxicity; also recorded: no activity towards NHDF	
Cc1cn(C2CC(n3cc(CNS(=O)(=O)c4cccc5cccnc45)nn3)C(CO)O2)c(=O)[nH]c1=O [Compound 11a, 8-N-({1-[(2R, 3S, 5S)-2-(Hydroxymethyl)-5-(5-methyl-2,4-dioxo-3,4-dihydropyrimidin-1(2H)-yl)tertrahydrofuran-3-yl]-1H-1,2,3-triazol-4-yl}methyl)quinolinesulfonamide]		0.36 µM	149 to 150 °C	129 µM	18.1 µM	143 µM						195 µM		
CCCCn1cc(CN(C)S(=O)(=O)c2cccc3cccnc23)nn1 [Compound 12b, 8-N-Methyl-N-{[1-(1-butyl)-1H-1,2,3-triazol-4-yl]methyl}quinolinesulfonamide]		1.29 µM	74 to 75 °C	63.6 µM	189 µM	80.4 µM						242 µM		
CCOC(=O)CCn1cc(CN(C)S(=O)(=O)c2cccc3cccnc23)nn1 [Compound 13b, Ethyl 3-{[4-(N-methylsulfamoyl-8-quinolyl)methyl]-1H-1,2,3-triazol-1-yl}propanoate]		85.2 µM		138 µM	> 500 µM	88.2 µM						> 500 µM		
C=C(Cn1cc(CNS(=O)(=O)c2cccc3cccnc23)nn1)[C@@H]1CC[C@]2(COC(C)=O)CC[C@]3(C)[C@H](CC[C@@H]4[C@@]5(C)CC[C@H](OC(C)=O)C(C)(C)[C@@H]5CC[C@]43C)[C@@H]12 [Compound 14a, 8-N-({1-[3β, 28-Diacetoxylup-20(29)-en-30-yl]-1H-1,2,3-triazol-4-yl}methyl)-quinolinesulfonamide]		> 500 µM	148 to 149 °C	101 µM	> 500 µM	> 500 µM						> 500 µM		

Further lines, with some results ahead:

IC50 (SNB-19; 72 h)	IC50 (Caco-2; Homo sapiens, Caco-2, 72 h)	melting point	IC50 (SNB-19; Homo sapiens, SNB-19, 72 h)	IC50 (A549 [1]; Homo sapiens, A549, 72 h)	IC50 (SKOV-3; Homo sapiens, SK-OV-3, 72 h)	IC50 A-549 (A549 [1]; 72 h)	IC50 (Caco-2; 72 h)	Structure (SMILES)	IC50 (A549 [1]; 72 h)	IC50 (NHDF)	IC50 (SKOV-3; 72 h)	IC50 (NHDF; Homo sapiens, NHDF)	IC50 NHDF (NHDF)	IC50 (A549 [2])
	2.21 µM	110 to 111 °C	> 500 µM	> 500 µM	> 500 µM			N#Cc1ccc(Cn2cc(CNS(=O)(=O)c3cccc4cccnc34)nn2)cc1 [Compound 5a, 8-N-{[1-(4-Cyanobenzyl)-1H-1,2,3-triazol-4-yl]methyl}quinolinesulfonamide]				> 500 µM		
	19.3 µM	85 to 86 °C	156 µM	> 500 µM	> 500 µM			CN(Cc1cn(Cc2ccc(F)cc2)nn1)S(=O)(=O)c1cccc2cccnc12 [Compound 6b, 8-N-Methyl-N-{[1-(4-fluorobenzyl)-1H-1,2,3-triazol-4-yl]methyl}quinolinesulfonamide]				> 500 µM		
	0.31 µM	135 to 136 °C	0.83 µM	36.1 µM	16.9 µM			O=[N+]([O-])c1ccc(Cn2cc(CNS(=O)(=O)c3cccc4cccnc34)nn2)cc1 [Compound 7a, 8-N-{[1-(4-Nitrobenzyl)-1H-1,2,3-triazol-4-yl]methyl}quinolinesulfonamide]				169 µM		
	14.3 µM	106 to 107 °C	72.4 µM	3.69 µM	115 µM			O=S(=O)(NCc1cn(CSc2ccccc2)nn1)c1cccc2cccnc12 [Compound 8a, 8-N-[(1-Methylthiophenyl-1H-1,2,3-triazol-4-yl)methyl]quinolinesulfonamide]				40.6 µM		
	18 µM		62.4 µM		108 µM			O=S(=O)(NCc1cn(-c2ccnc3cc(Cl)ccc23)nn1)c1cccc2cccnc12 [Compound 9a, 8-N-{[1-(7-chloroquinolin-4-yl)-1H-1,2,3-triazol-4-yl]methyl}quinolinesulfonamide]				> 500 µM		> 500 µM
	9.69 µM	194 to 195 °C	37.4 µM	113 µM	94.5 µM			O=S(=O)(NCc1cn(-c2ccnc3c(Br)cccc23)nn1)c1cccc2cccnc12 [Compound 10a, 8-N-{[1-(8-Bromoquinolin-4-yl)-1H-1,2,3-triazol-4-yl]methyl}quinolinesulfonamide]				> 500 µM		
0.3 µM	≥ 0.3 µM	206 to 207 °C	≤ 0.4 µM	1.77 µM	24.7 µM		0.3 µM	CN(Cc1cn(-c2ccnc3c(Br)cccc23)nn1)S(=O)(=O)c1cccc2cccnc12 [Compound 10b, 8-N-Methyl-N-{[1-(8-bromoquinolin-4-yl)-1H-1,2,3-triazol-4-yl]methyl}quinolinesulfonamide]				26.2 µM	have activity against normal cells	
	0.48 µM	176 to 178 °C	0.59 µM	1.29 µM	7.16 µM			Cc1cn(C2CC(n3cc(CN(C)S(=O)(=O)c4cccc5cccnc45)nn3)C(CO)O2)c(=O)[nH]c1=O [Compound 11b, 8-N-Methyl-N-({1-[(2R, 3S, 5S)-2-(hydroxymethyl)-5-(5-methyl-2,4-dioxo-3,4-dihydropyrimidin-1(2H)-yl)tertrahydrofuran-3-yl]-1H-1,2,3-triazol-4-yl}methyl)quinolinesulfonamide]				98.3 µM	have activity against normal cells	
